Source: patent US9474276B2, “Synergistic pesticidal compositions and related methods” (Dow AgroSciences LLC, priority 2013, dated 2016)

System: diamondback moth, Plutella xylostella
Test: Bioassay on treated cabbage plants (track sprayer, 400 L/Ha) infested with second instar diamondback moth; synergy judged by Colby's equation
Assay type: in vivo
From the text: The method described in Colby S. R., “Calculating Synergistic and Antagonistic Responses of Herbicide Combinations,” Weeds, 1967, 15, 20-22 was used to determine an existence of synergic effect between the inhibitor of chitin biosynthesis, type 1 compound and the pesticide (I), (II), or any agriculturally acceptable salt thereof in the formulated pesticidal composition. In this method, the percent insect control of the formulated pesticidal composition as observed in the study was compared to the “expected” percent control (E) as calculated by equation (1) (hereinafter “Colby's equation”) below:
[formula] where • X is the percentage of control with the first pesticide at a given rate (p), • Y is the percentage of control with the second pesticide at a given rate (q), and • E is the expected control by the first and second pesticide at a rate of p+q.
Bioassays were performed for different active compounds. Cabbage plants with about two to three new-growth-true leaf stage were treated with different active compounds using a track sprayer application at 400 L/Ha spray volume. Three second instar diamondback moth, Plutella xylostella, were infested onto each leaf disc. The percent control of the pesticidal composition against diamondback moth, Plutella xylostella, was determined as the “Observed” action, and compared to those obtained by using about 0.000625 weight % of compound I, and using about 0.000625 weight % of buprofezin alone. The “Colby's Expected Action” was calculated using Colby's equation as discussed previously.
Bioassays were performed wherein different active compounds were tested against diamondback moth, Plutella xylostella, using the procedure described in example 5A.
Bioassays may be performed for different active compounds against diamondback moth, Plutella xylostella, using the procedure described in example 5A. The percent control may be determined after three days after the treatment.

[1] = Example 5A, active used alone, dose rate 0.000625 weight %, diamondback moth on cabbage

Row | SMILES | % Control Three Days After Treatment [1] | % Control Three Days After Treatment (Example 5A, active used alone, dose rate 0.000625 weight %, diamondback moth on cabbage, listed as buprofezin) | % Control Three Days After Treatment (Example 5B, buprofezin alone, dose rate 0.0025 weight %) | % Control Three Days After Treatment (Example 5B, buprofezin alone, dose rate 0.0025 weight %, listed as buprofezin) | % Control Three Days After Treatment (Example 5C, buprofezin alone, dose rate 0.000625 weight %) | % Control Three Days After Treatment (Example 5C, buprofezin alone, dose rate 0.000625 weight %, listed as buprofezin) | % Control Three Days After Treatment (Example 5B, compound I alone, dose rate 0.000625 weight %) | % Control Three Days After Treatment (Example 5B, compound I alone, dose rate 0.000625 weight %, listed as compound I) | % Control Three Days After Treatment (Example 5C, compound I alone, dose rate 0.0025 weight %) | % Control Three Days After Treatment (Example 5C, compound I alone, dose rate 0.0025 weight %, listed as compound I)
1 | CC(C)N1C(=O)N(c2ccccc2)CS/C1=N\C(C)(C)C [Buprofezin, (E,Z)-2-tert-butylimino-3-isopropyl-5-phenyl-1,3,5-thiadiazinan-4-one] | 0% | no control | 0% | no control | 0% | no control | – | – | – | –
2 | CCN(C(=O)CCSCCC(F)(F)F)c1cn(-c2cccnc2)nc1Cl [Compound I, N-(3-chloro-1-(pyridin-3-yl)-1H-pyrazol-4-yl)-N-ethyl-3-((3,3,3-trifluoropropyl)thio)propanamide] | no control | – | – | – | – | – | 0% | no control | 0% | no control
